Among the data in article PMC7093242 (Cell chemical biology, 2020) are concentration-dependent inhibition values, retold here.

Molecules are shown by their SMILES.

This test deals with Yck2-HA (HA-tagged Yck2) (Candida albicans, UniProt A0A1D8PKB4). Put plainly: ADP-Glo kinase assay on immunoprecipitated Yck2-HA beads. In kind it is biochemical. The conditions noted are these: 25 μM ATP, 0.2 mg/mL casein kinase I peptide substrate, pH 7.5, 30°C; little effect. On the technique in general: In ADP-Glo the light output rises with the ADP produced.

Consider `CN[C@@H]1C[C@H]2O[C@@](C)([C@@H]1OC)n1c3ccccc3c3c4c(c5c6ccccc6n2c5c31)C(=O)NC4` [STS, staurosporine], for which the concentration-dependent inhibition result was “the promiscuous PKI, staurosporine had little effect on Yck2 activity”.
